Experimental data published in patent US9199941B2, “Pyrazole indanyl carboxamides” (BAYER CROPSCIENCE AG, priority 2012, dated 2015).
Values joined by “and” are separate entries in the source; they are usually repeats but may differ in a detail not shown here. Identical values can stand only once. Like-named read-outs stand apart in the source and are kept apart here.

Assays:
[1] = log P by HPLC on reversed phase columns (EEC directive 79/831 Annex V.A8); format: physicochemical
[2] = tested on: Puccinia recondita; assay: In vivo preventive test on Puccinia recondita (brown rust on wheat); settings: preventive spray, wheat plants, grading 12 days after contamination
Description: Plants, used as controls, are treated with the mixture of acetone/tween/DMSO/water not containing the active material. After 24 hours, the plants are contaminated by spraying the leaves with an aqueous suspension of Puccinia […] spores (100 000 spores per ml). […] Grading (% of efficacy) is carried out 12 days after the contamination, in comparison with the control plants.

[3] = tested on: Sphaerotheca fuliginea; assay: In vivo preventive test on Sphaerotheca fuliginea (powdery mildew on cucurbits); settings: preventive spray, gherkin plants, grading 12 days after contamination
Description: Gherkin plants (“Vert petit de Paris” variety), sown in starter cups on a 50/50 peat soil-pozzolana substrate and grown at 24° C., are treated at the Z11 cotyledon stage by spraying with the active ingredient prepared as described above. Plants, used as controls, are treated with the mixture of acetone/tween/DMSO/water not containing the active material. After 24 hours, the plants are contaminated by spraying the cotyledons with an aqueous suspension of Sphaerotheca fuliginea spores (100 000 spores per ml). The spores are collected from infected plants. The contaminated gherkin plants are incubated at about 20° C. and at 70-80% relative humidity. Grading (% of efficacy) is carried out 12 days after the contamination, in comparison with the control plants.

[4] = tested on: Uromyces appendiculatus; assay: In vivo preventive test on Uromyces appendiculatus (bean rust); settings: preventive spray, bean plants, grading 11 days after contamination
Description: Bean plants (“Saxa” variety), sown in starter cups on a 50/50 peat soil-pozzolana substrate and grown at 24° C., are treated at the 2-leaf stage (9 cm height) by spraying with the active ingredient prepared as described above. Plants, used as controls, are treated with the mixture of acetone/tween/DMSO/water not containing the active material. After 24 hours, the plants are contaminated by spraying the leaves with an aqueous suspension of Uromyces appendiculatus spores (150 000 spores per ml). […] Grading (% of efficacy) is carried out 11 days after the contamination, in comparison with the control plants.

[5] = tested on: Septoria tritici; assay: In vivo preventive test on Septoria tritici (leaf spot on wheat); settings: 500 ppm, preventive spray, wheat plants, grading 24 days after contamination
Description: Wheat plants (“Scipion” variety), sown in starter cups on a 50/50 peat soil-pozzolana substrate and grown at 22° C., are treated at the 1-leaf stage (10 cm height) by spraying with the active ingredient prepared as described above. Plants, used as controls, are treated with the mixture of acetone/tween/DMSO/water not containing the active material. After 24 hours, the plants are contaminated by spraying the leaves with an aqueous suspension of cryopreserved Septoria tritici spores (500 000 spores per ml). […] Grading (% of efficacy) is carried out 24 days after the contamination, in comparison with the control plants.

[6] = tested on: Pyrenophora teres; assay: In vivo preventive test on Pyrenophora teres (net blotch on barley); settings: 500 ppm, preventive spray, barley plants, incubated 48 hours then 12 days
Description: Barley plants (“Plaisant” variety), sown in starter cups on a 50/50 peat soil-pozzolana substrate and grown at 22° C., are treated at the 1-leaf stage (10 cm height) by spraying with the active ingredient prepared as described above. Plants, used as controls, are treated with the mixture of acetone/tween/DMSO/water not containing the active material. After 24 hours, the plants are contaminated by spraying the leaves with an aqueous suspension of Pyrenophora teres spores (12 000 spores per ml). The spores are collected from a 12-day-old culture.

[7] = Table 2, amines of formula (III-a), method [a]: LC-MS at pH 2.7, 0.1% formic acid in water / acetonitrile
[8] = Table 1, compounds of formula (I), method [a]: LC-MS at pH 2.7, 0.1% formic acid in water / acetonitrile

Compound | logP [1, 7] | logP [1, 8] | Eff. % ([2]; 500 ppm) [%] | Eff. % ([4]; 500 ppm) [%] | also measured
CC1CC2(CC2(Cl)Cl)c2cccc(N)c21 (mixture of isomers) [Example III-a-1] | 3.04 and 2.94 |  |  |  | 
CC(C)C1CCc2c(NC(=O)c3cn(C)nc3C(F)F)cccc21 (centres unmarked) [Example 2] |  | 3.6[a] | 98 | 100 | Eff. % ([3]; 500 ppm): 94%
CC1CC2(CC2(Cl)Cl)c2cccc(NC(=O)c3cn(C)nc3C(F)F)c21 (centres unmarked) [Example 4] |  | 3.5[a] | 100 | 100 | Eff. % [5]: 100%; Eff. % ([3]; 500 ppm): 100%
Cn1cc(C(=O)Nc2cccc3c2CCC32CC2(Cl)Cl)c(C(F)F)n1 (centres unmarked) [Example 5] |  | 3.33[a] |  | 100 | Eff. % [5]: 71%; Eff. % ([3]; 500 ppm): 100%
CC1CC2(CC2)c2cccc(NC(=O)c3cn(C)nc3C(F)(F)F)c21 (centres unmarked) [Example 10] |  | 3.35[a] | 100 | 99 | 
Cc1nn(C)c(C)c1C(=O)Nc1cccc2c1CCC21CC1 [Example 13] |  | 2.57[a] | 89 | 100 | 
Cc1nn(C)c(C)c1C(=O)Nc1cccc2c1C(C)CC2CC(C)C (centres unmarked) [Example 14] |  | 3.87[a] | 98 | 99 | 
Cc1nn(C)c(F)c1C(=O)Nc1cccc2c1CCC21CC1 [Example 15] |  |  | 94 | 100 | 
Cc1nn(C)c(C)c1C(=O)Nc1cccc2c1C(C)CC2C(C)(C)C (centres unmarked) [Example 16] |  | 4.13[a] | 98 | 100 | 
Cn1cc(C(=O)Nc2cccc3c2CCC32CC2)c(C(F)F)n1 [Example 17] |  | 2.96[a] | 98 | 100 | Eff. % [6]: 70%
CCCCON=C1CCc2c(NC(=O)c3cn(C)nc3C(F)F)cccc21 [Example 21] |  | 3.59[a] |  |  | Eff. % [5]: 70%
Cc1nn(C)c(C)c1C(=O)Nc1cccc2c1C(C)CC21CC1 (centres unmarked) [Example 22, 1,3,5-trimethyl-N-(3′-methyl-2′,3′-dihydrospiro[cyclopropane-1,1′-inden]-4′-yl)-1H-pyrazole-4-carboxamide] |  |  | 81 | 100 | chromatographic logP ([1]; pH 2.7): 2.7
CON=C1CCc2c(NC(=O)c3cn(C)nc3C(F)F)cccc21 [Example 23] |  | 2.59[a] | 94 |  | 
Cc1nn(C)c(O)c1C(=O)Nc1cccc2c1CCC21CC1 [Example 26] |  | 2.04[a] |  |  | Eff. % [5]: 71%
Cn1cc(C(=O)Nc2cccc3c2CCC3C(C)(C)C)c(C(F)F)n1 (centres unmarked) [Example 28] |  | 3.94[a] | 100 | 100 | Eff. % [5]: 86%; Eff. % ([3]; 500 ppm): 100%
CCON=C1CC(C)c2c(NC(=O)c3c(C)nn(C)c3F)cccc21 (centres unmarked) [Example 29] |  | 2.76[a] | 81 | 80 | Eff. % [6]: 75%
CCCON=C1CCc2c(NC(=O)c3cn(C)nc3C(F)F)cccc21 [Example 30] |  | 3.15[a] | 71 | 95 | Eff. % [5]: 85%; Eff. % ([3]; 500 ppm): 90%
CON=C1CC(C)c2c(NC(=O)c3cn(C)nc3C(F)F)cccc21 (centres unmarked) [Example 31] |  | 2.45[a] |  | 99 | Eff. % [5]: 79%
CC(C)CC1CCc2c(NC(=O)c3cn(C)nc3C(F)F)cccc21 (centres unmarked) [Example 32] |  | 4.11[a] | 98 | 100 | Eff. % [5]: 71%; Eff. % ([3]; 500 ppm): 98%
Cc1nn(C)c(F)c1C(=O)Nc1cccc2c1C(C)CC2CC(C)(C)C (centres unmarked) [Example 35] |  | 4.61[a] | 98 | 100 | Eff. % ([3]; 500 ppm): 100%
Cn1cc(C(=O)Nc2cccc3c2C(C)(C)CC3)c(C(F)F)n1 [Example 36] |  | 2.8[a] |  |  | 
Cn1cc(C(=O)Nc2cccc3c2CCC3O)c(C(F)F)n1 (centres unmarked) [Example 37] |  | 1.61[a] |  |  | 
Cc1nn(C)c(C)c1C(=S)Nc1cccc2c1C(C)CC21CC1 (centres unmarked) [Example 39, 1,3,5-trimethyl-N-(3′-methyl-2′,3′-dihydrospiro[cyclopropane-1,1′-inden]-4′-yl)-1H-pyrazole-4-carbothioamide] |  |  | 89 | 100 | chromatographic logP ([1]; pH 2.7): 3.06
Cc1nn(C)c(C)c1C(=S)Nc1cccc2c1C(C)CC2CC(C)C (centres unmarked) [Example 40] |  | 4.25[a] | 98 | 100 | 
Cc1nn(C)c(F)c1C(=S)Nc1cccc2c1C(C)CC2CC(C)(C)C (centres unmarked) [Example 43] |  | 4.87[a] | 98 | 100 | Eff. % ([3]; 500 ppm): 100%
CC1CC2(CC2)c2cccc(NC(=O)c3c(C4CC4)nn(C)c3Cl)c21 (centres unmarked) [Example 45] |  | 4.04[a] |  |  | 

Compound | logP [1, 7] | logP [1, 8] | Eff. % ([2]; 500 ppm) [%] | Eff. % ([4]; 500 ppm) [%] | also measured
Cc1nn(C)c(Cl)c1C(=O)Nc1cccc2c1C(C)CC21CC1 (centres unmarked) [Example 47] |  | 3.44[a] |  |  | Eff. % ([2]; 100 ppm): 95%; Eff. % ([4]; 100 ppm): 100%
Cc1c(C(=O)Nc2cccc3c2C(C)CC32CC2)cnn1C (centres unmarked) [Example 48] |  | 2.55[a] |  |  | Eff. % ([2]; 100 ppm): 98%; Eff. % ([3]; 100 ppm): 81%; Eff. % ([4]; 100 ppm): 100%
CC1CC2(CCCC2)c2cccc(NC(=O)c3cn(C)nc3C(F)F)c21 (centres unmarked) [Example 49] |  | 4.31[a] |  |  | Eff. % ([2]; 100 ppm): 89%
CC1CCc2c(NC(=O)c3cn(C)nc3C(F)F)cccc21 (centres unmarked) [Example 50] |  | 3.01[a] |  |  | Eff. % ([2]; 100 ppm): 78%
CCc1nn(C)cc1C(=O)Nc1cccc2c1C(C)CC21CC1 (centres unmarked) [Example 51] |  | 2.99[a] |  |  | 
CCc1c(C(=O)Nc2cccc3c2C(C)CC32CC2)cnn1C (centres unmarked) [Example 54] |  | 2.99[a] |  |  | 
CC1CC2(CC2)c2cccc(NC(=O)c3c(C(F)(F)F)nn(C)c3F)c21 (centres unmarked) [Example 55] |  | 3.72[a] |  |  | Eff. % ([2]; 100 ppm): 85%
CC(C)c1nn(C)cc1C(=O)Nc1cccc2c1C(C)CC21CC1 (centres unmarked) [Example 56] |  | 3.29[a] |  |  | 
Nc1cccc2c1CCC21CC1 [Example III-a-2] | 1.37[a] |  |  |  | 
CC1CC(C(C)C)c2cccc(N)c21 (centres unmarked) [Example III-a-11] | 2.73[a] |  |  |  | 
CC1CC(C(C)C)c2cccc(N)c21 (centres unmarked) [Example III-a-12] | 2.86[a] |  |  |  | 
CC(C)CC1CCc2c(N)cccc21 (centres unmarked) [Example III-a-14] | 2.64[a] |  |  |  | 
CC1CC2(CC2)c2cccc(N)c21 (centres unmarked) [Example III-a-16, 3′-methyl-2′,3′-dihydrospiro[cyclopropane-1,1′-inden]-4′-amine] |  |  |  |  | chromatographic logP ([1]; reversed phase HPLC columns, Table 2, amines of formula (III-a), method [a]: LC-MS at pH 2.7, 0.1% formic acid in water / acetonitrile, read-out: logP): 1.93
CCC1(C)CCc2c(N)cccc21 (centres unmarked) [Example III-a-17] | 1.88[a] |  |  |  | 
CCCON=C1CC(C)c2c(N)cccc21.Cl (centres unmarked) [Example III-a-18] | 2.78[a] |  |  |  | 
CCON=C1CC(C)c2c(N)cccc21.Cl (centres unmarked) [Example III-a-19] | 2.26[a] |  |  |  | 
CC(C)(C)C1CCc2c(N)cccc21 (centres unmarked) [Example III-a-21] | 2.4[a] |  |  |  | 
CC1CC(CC(C)(C)C)c2cccc(N)c21 (centres unmarked) [Example III-a-22] | 3.83[a] |  |  |  | 
CC(C)CC1CC(C)c2c(N)cccc21 (centres unmarked) [Example III-a-23] | 3.42[a] |  |  |  | 
CCCON=C1CCc2c(N)cccc21.Cl [III-a-7] | 2.26[a] |  |  |  | 
CCCCON=C1CCc2c(N)cccc21.Cl [III-a-8] | 2.86[a] |  |  |  | 
CON=C1CCc2c(N)cccc21.Cl [III-a-9] | 1.26[a] |  |  |  | 
CCON=C1CCc2c(N)cccc21.Cl [III-a-10] | 1.75[a] |  |  |  | 
CC1CC(C)c2c(N)cccc21 (centres unmarked) [III-a-15] | 1.76[a] |  |  |  | 
CON=C1CC(C)c2c(N)cccc21.Cl (centres unmarked) [III-a-20] | 1.76[a] |  |  |  | 
